Laboratory results: PubChem BioAssay (NCI)
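48-hour exposure; five concentrations; linearly interpolated endpoints. At the GI50, growth is halved. TGI: total growth inhibition.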

Experiments:
Assay in all cases: growth of human tumour cells (NCI), 48 h
[1] = test system: HCT-15 colon
[2] = test system: NCI-H23 lung
[3] = test system: M14 melanoma
[4] = test system: SNB-75 CNS
[5] = test system: OVCAR-3 ovarian
[6] = test system: NCI-H226 lung
[7] = test system: UACC-257 melanoma
[8] = test system: SK-MEL-5 melanoma
[9] = test system: HCC-2998 colon
[10] = test system: MDA-MB-435
[11] = test system: DU-145 prostate
[12] = test system: KM12 colon
[13] = test system: A498 renal
[14] = test system: NCI-H460 lung
[15] = test system: SW-620 colon
[16] = test system: HS 578T breast
[17] = test system: MCF7 breast
[18] = test system: LOX IMVI melanoma
[19] = test system: HL-60(TB) leukemia
[20] = test system: OVCAR-4 ovarian
[21] = test system: SK-OV-3 ovarian
[22] = test system: SNB-19 CNS
[23] = test system: HCT-116 colon
[24] = test system: OVCAR-8 ovarian
[25] = test system: T-47D breast
[26] = test system: SK-MEL-2 melanoma
[27] = test system: UO-31 renal
[28] = test system: UACC-62 melanoma
[29] = test system: A549 NSCLC
[30] = test system: SK-MEL-28 melanoma
[31] = test system: HOP-62 NSCLC
[32] = test system: PC-3 prostate
[33] = test system: HOP-92 NSCLC
[34] = test system: MALME-3M melanoma
[35] = test system: SF-295 CNS
[36] = test system: SN12C renal
[37] = test system: NCI-H522 lung
[38] = test system: SF-268 CNS
[39] = test system: 786-0 renal
[40] = test system: IGROV1 ovarian
[41] = test system: RXF 393 renal
[42] = test system: MDA-MB-231 breast
[43] = test system: SF-539 CNS
[44] = test system: COLO 205 colon
[45] = test system: BT-549 breast
[46] = test system: OVCAR-5 ovarian
[47] = test system: RPMI-8226 leukemia
[48] = test system: ACHN renal
[49] = test system: HT29 colon
[50] = test system: TK-10 renal
[51] = test system: U251 CNS
[52] = test system: NCI/ADR-RES ovarian

Brc1ccc2c(c1)c(-c1nc(-c3c[nH]c4ncccc34)cs1)cn2CCCN1CCCCC1
GI50 [1]: 1660 nM
TGI [1]: 3080 nM
GI50 [2]: 1750 nM
TGI [2]: 3370 nM
GI50 [3]: 1790 nM
TGI [3]: 3390 nM
GI50 [4]: 1850 nM
TGI [4]: 4590 nM
GI50 [5]: 1890 nM
TGI [5]: 3430 nM
GI50 [6]: 1890 nM
TGI [6]: 5010 nM
GI50 [7]: 1900 nM
TGI [7]: 3500 nM
GI50 [8]: 1740 nM
TGI [8]: 3140 nM
GI50 [9]: 1820 nM
TGI [9]: 3410 nM
GI50 [10]: 1860 nM
TGI [10]: 3490 nM
GI50 [11]: 1770 nM
TGI [11]: 3180 nM
GI50 [12]: 1820 nM
TGI [12]: 3480 nM
GI50 [13]: 2320 nM
TGI [13]: 9160 nM
GI50 [14]: 1780 nM
TGI [14]: 3370 nM
GI50 [15]: 1750 nM
TGI [15]: 3310 nM
GI50 [16]: 2130 nM
TGI [16]: 5550 nM
GI50 [17]: 1620 nM
TGI [17]: 3110 nM
GI50 [18]: 1680 nM
TGI [18]: 3080 nM
GI50 [19]: 1900 nM
TGI [19]: 4570 nM
GI50 [20]: 2240 nM
TGI [20]: 4880 nM

Cc1ccc(/C=C2\CN(Cc3cn(CCNc4ccnc5cc(Cl)ccc45)nn3)C/C(=C\c3ccc(C)cc3)C2=O)cc1
GI50 [21]: 1900 nM
TGI [21]: 3570 nM
GI50 [22]: 1820 nM
TGI [22]: 3430 nM
GI50 [23]: 1680 nM
TGI [23]: 3270 nM
GI50 [24]: 2030 nM
TGI [24]: 4850 nM
GI50 [25]: 2500 nM
TGI [25]: 6530 nM
GI50 [26]: 1990 nM
TGI [26]: 3650 nM
GI50 [27]: 1440 nM
TGI [27]: 2850 nM
GI50 [3]: 2200 nM
TGI [3]: 4620 nM
GI50 [28]: 1880 nM
TGI [28]: 3430 nM
GI50 [4]: 1610 nM
TGI [4]: 3530 nM
GI50 [5]: 1800 nM
TGI [5]: 3240 nM
GI50 [29]: 1800 nM
TGI [29]: 3730 nM
GI50 [6]: 2030 nM
TGI [6]: 4800 nM
GI50 [7]: 1700 nM
TGI [7]: 3380 nM
GI50 [30]: 1740 nM
TGI [30]: 3260 nM
GI50 [8]: 1700 nM
TGI [8]: 3120 nM
GI50 [31]: 1960 nM
TGI [31]: 3470 nM
GI50 [32]: 1750 nM
TGI [32]: 3740 nM
GI50 [9]: 1920 nM
TGI [9]: 3440 nM
GI50 [10]: 1660 nM
TGI [10]: 3100 nM
GI50 [33]: 1450 nM
TGI [33]: 3010 nM
GI50 [11]: 1760 nM
TGI [11]: 3170 nM
GI50 [34]: 1700 nM
TGI [34]: 3470 nM
GI50 [35]: 1990 nM
TGI [35]: 3730 nM
GI50 [12]: 1650 nM
TGI [12]: 3280 nM
GI50 [36]: 1930 nM
TGI [36]: 3950 nM
GI50 [37]: 1980 nM
TGI [37]: 3660 nM
GI50 [38]: 2040 nM
TGI [38]: 4200 nM
GI50 [39]: 1850 nM
TGI [39]: 3360 nM
GI50 [40]: 1920 nM
TGI [40]: 3730 nM
GI50 [13]: 850 nM
TGI [13]: 2200 nM
GI50 [41]: 1670 nM
TGI [41]: 3360 nM
GI50 [42]: 2140 nM
TGI [42]: 4620 nM
GI50 [43]: 1790 nM
TGI [43]: 3260 nM
GI50 [44]: 1890 nM
TGI [44]: 3420 nM
GI50 [14]: 1540 nM
TGI [14]: 3380 nM
GI50 [45]: 1890 nM
TGI [45]: 3350 nM
GI50 [46]: 1800 nM
TGI [46]: 3540 nM
GI50 [47]: 1820 nM
TGI [47]: 4980 nM
GI50 [16]: 1970 nM
TGI [16]: 5530 nM
GI50 [17]: 1620 nM
TGI [17]: 3460 nM
GI50 [48]: 1780 nM
TGI [48]: 3250 nM
GI50 [49]: 1910 nM
TGI [49]: 3850 nM
GI50 [18]: 1760 nM
TGI [18]: 3360 nM
GI50 [50]: 1910 nM
TGI [50]: 3360 nM
GI50 [19]: 2230 nM
TGI [19]: 5260 nM
GI50 [20]: 1660 nM
TGI [20]: 3570 nM
GI50 [51]: 1570 nM
TGI [51]: 3010 nM
GI50 [52]: 2320 nM
TGI [52]: 5140 nM
